Values joined by “and” are separate entries in the source; they are usually repeats but may differ in a detail not shown here. Equal values may be shown once.
Key:
[1] = Preliminary pharmacodynamic studies of the metabolites; conditions: data not shown
Description: Based on the pharmacological activity, the pharmacokinetic characteristics of the metabolites were evaluated in the study.

[2] = Safety assessment, adverse event monitoring (Parts I-V); format: in vivo, human
Description: Safety was assessed using subject interviews and adverse event (AE) monitoring. All subjects received laboratory examinations after termination of drug infusion for 48 or 72 h; the examination items are the same as those listed in the screening process. If clinical abnormalities were present, further follow-ups were required until the laboratory test values or vital sign levels of the abnormal items returned to normal values or stable levels. The clinical significance of abnormal laboratory test values was determined by the physicians.
(§1) The vital signs were analyzed by repeated measures analysis of variance (ANOVA), and laboratory indexes were analyzed by the paired t-test and one-way ANOVA. Comparison within different dose regimens of pyragrel or among different treatments (pyragrel, ozagrel, and placebo) or production of urinary 11-D-HTXB2 among groups was performed with the t-test, and expected values were considered along with the actual situation. Descriptive methods were used to compare the incidence of AE between pyragrel and ozagrel/placebo or in different pyragrel dose regimens; the normal/abnormal changes in laboratory examinations before and after administration were described.

[3] = mice, daily 36 mg/kg injections for 4 days, cited from earlier work
[4] = dog, in vivo; cited from earlier work
[5] = test system: focal cerebral ischemia; conditions: cited from earlier work
[6] = test system: urinary 11-D-HTXB2 (indicator of TXA2 production); experiment: Urinary 11-D-HTXB2 production by ELISA (Part IV); format: in vivo, human; conditions: for Urinary 11-D-HTXB2 (standardized by urine creatinine): Part IV
Description: […] […] Production of 11-dehydro-thrombxane B2 (11-D-HTXB2) in urine sample was detected by ELISA method.
as §1
Given that 11-dehydrothromboxane B2 (11-D-HTXB2) is considered a reliable indicator of TXA2 production in humans and several animal models ([Morio et al., 1993]; [Yamanaka et al., 1993]), we preliminarily measured the production of urinary 11-D-HTXB2 as a maker for evaluating the TXA2 inhibition activity of pyragrel in three dose groups (60, 120, or 240 mg) in Part IV. […] ( Table 9 ).

[7] = test system: plasma TXB2 and 6-keto-PG1α; experiment: Plasma TXB2 and 6-keto-PG1α by ELISA (Part IV); format: in vivo, human; conditions: pyragrel 60, 120, 240 mg single i.v. dose; data not shown
Description: (§2) Urinary levels of 11-D-HTXB2, the degree of platelet agglutination inhibition (DPAI), and the plasma levels of TXB2 and 6-keto-PG1α are considered effective indicators to confirm the antithrombotic effect of a drug candidate ([Uyama et al., 1985]; [Morio et al., 1993]). Therefore, we determined the inhibitory effect of pyragrel on all these three markers in Part IV after a single 3 h infusion dose of pyragrel (60, 120, or 240 mg). […] Similarly, the plasma levels of TXB2 and 6-keto-PG1α (stable metabolites of TXA2 and PGI2, respectively) were determined by ELISA since the decreased TXB2/6-keto- PG1α ratio indicates platelet aggregation and thrombosis inhibition ([Mizugaki et al., 1999]). […] Actually, levels of plasma TXB2 and 6-keto-PG1α are different between patients with cerebral ischemic and healthy subjects; with the limitation of small size for pharmacodynamic activity evaluation in the study, plus the significant reduction in urinary 11-D-HTXB2 level here, we recommended that a larger sample size, extensive phase II study should be performed in patients to further study the pharmacodynamic characteristic of pyragrel.

[8] = test system: platelet agglutination inducted by adenosine diphosphate (ADP) and arachidonic acid (AA); experiment: Platelet agglutination inducted by ADP and AA (Part IV); format: in vivo, human; conditions: single 3 h infusion of pyragrel 60, 120 or 240 mg, data not shown
Description: as §2

[9] = Part II, pyragrel 240 mg in 250 ml saline
[10] = Part III, multiple doses of pyragrel 180 mg
[11] = Part IV, pyragrel 60, 120, 240 mg crossover
[12] = Part V, pyragrel 360 mg in 24 h

COc1cc(CCC(=O)O)ccc1OCc1nc(C)c(C)nc1C [BBS]
Antiplatelet and antithrombotic effects [1]: weak

COc1cc(C=CC(=O)[O-])ccc1OCc1nc(C)c(C)nc1C.[Na+] [Pyragrel, sodium pyragrel]
AE incidence rate (IR) ([2]; Part I, 36 pyragrel-treated subjects, 8 subjects of ozagrel treatment): 33.3%
AE Type ([2]; Part I, pyragrel 30 mg): DB elevation, palpitation
Number of AEs ([2]; Part I, pyragrel 30 mg): 2
AE Type ([2]; Part I, pyragrel 60 mg): Leucocytes increase, positive urine protein
Number of AEs ([2]; Part I, pyragrel 60 mg): 2
AE Type ([2]; Part I, pyragrel 120 mg): DB elevation
Number of AEs ([2]; Part I, pyragrel 120 mg): 1
AE Type ([2]; Part I, pyragrel 180 mg): DB elevation (2), ventosity
Number of AEs ([2]; Part I, pyragrel 180 mg): 3
AE Type ([2]; Part I, pyragrel 240 mg): APTT extension
Number of AEs ([2]; Part I, pyragrel 240 mg): 2
AE Type ([2]; Part I, pyragrel 300 mg): Lower hemoglobin, total bile acid increase
Number of AEs ([2]; Part I, pyragrel 300 mg): 2
AE Type [2, 9]: DB/TB elevation
Number of AEs [2, 9]: 2
AE incidence rate (IR) ([2]; Part II, pyragrel 240 mg in 250 ml saline, 2/4): 50%
AE Type [2, 10]: DB/TB elevation, alanine aminotransferase elevated, abdominal pain, headache, low blood potassium, urine frequency, fecal OBT+.
Number of AEs [2, 10]: 12
AE Type [2, 11]: Dizziness, TB/DB elevation, transient left tinnitus, double upper arm papules, fatigue
Number of AEs [2, 11]: 8
AE incidence ([2]; Part V, continuous infusion, 1/4): 25.0%
AE Type [2, 12]: DB elevation
Number of AEs [2, 12]: 1
Severe AEs, in words ([2]; Parts I-V): No severe AEs occurred
Number of AEs ([2]; Total, Parts I-V): 35
Incidence of elevation in conjugated bilirubin (DB elevation) ([2]; all parts, 12/68 subjects of pyragrel, 2/8 subjects of ozagrel): 17.6%
Tolerability, in words ([2]; single i.v. infusion up to 300 mg, multiple dose 180 mg, prolonged infusion 360 mg within 24 h): well tolerated
Bleeding time, lower than with ozagrel ([3]; P < 0.01): 35%
Prolongation of coagulation time, pyragrel vs ozagrel [3]: comparable
Maximum safe dose [4]: > 12.5 mg/kg/day
Effect against focal cerebral ischemic injury and focal cerebral ischemia-reperfusion ([5]; rat models of focal cerebral ischemia, ref Wang and Wu, 2014): markedly protective effects
Nerve function ([5]; rats with focal cerebral ischemia-reperfusion injury, continuous infusion of pyragrel for 7 days): significant improvements
Duration of the inhibitory effect on 11-D-HTXB2 production ([6]; 120- and 240-mg group, P<0.05 vs preadministration): at least 12 h
Urinary 11-D-HTXB2 (standardized by urine creatinine) ([6]; 60 mg/kg group, 0–3 h after administration): 37.83 ± 4.85 pg/mL
Urinary 11-D-HTXB2 (standardized by urine creatinine) ([6]; 60 mg/kg group, 3–4 h after administration): 36.64 ± 4.15 pg/mL
Urinary 11-D-HTXB2 (standardized by urine creatinine) ([6]; 60 mg/kg group, 4–8 h after administration): 35.05 ± 4.51 pg/mL
Urinary 11-D-HTXB2 (standardized by urine creatinine) ([6]; 60 mg/kg group, 8–12 h after administration, 60 mg/kg): 34.77 pg/mL and 34.77 ± 4.16 pg/mL
Urinary 11-D-HTXB2 (standardized by urine creatinine) ([6]; 60 mg/kg group, 12–24 h after administration, 60 mg/kg): 35.17 pg/mL and 35.17 ± 4.63 pg/mL
Urinary 11-D-HTXB2 (standardized by urine creatinine) ([6]; 120 mg/kg group, 0–3 h after administration): 37.06 ± 5.00 pg/mL
Urinary 11-D-HTXB2 (standardized by urine creatinine) ([6]; 120 mg/kg group, 3–4 h after administration): 35.85 ± 4.40 pg/mL
Urinary 11-D-HTXB2 (standardized by urine creatinine) ([6]; 120 mg/kg group, 4–8 h after administration): 33.03 ± 5.00 pg/mL
Urinary 11-D-HTXB2 (standardized by urine creatinine) ([6]; 120 mg/kg group, 8–12 h after administration): 31.45 ± 4.88 pg/mL
Urinary 11-D-HTXB2 (standardized by urine creatinine) ([6]; 120 mg/kg group, 12–24 h after administration): 32.14 ± 5.17 pg/mL
Urinary 11-D-HTXB2 (standardized by urine creatinine) ([6]; 240 mg group, 0–3 h after administration): 36.40 ± 4.68 pg/mL
Urinary 11-D-HTXB2 (standardized by urine creatinine) ([6]; 240 mg group, 3–4 h after administration): 35.37 ± 4.60 pg/mL
Urinary 11-D-HTXB2 (standardized by urine creatinine) ([6]; 240 mg group, 4–8 h after administration): 33.10 ± 4.31 pg/mL
Urinary 11-D-HTXB2 (standardized by urine creatinine) ([6]; 240 mg group, 8–12 h after administration, 240 mg/kg): 30.72 pg/mL and 30.72 ± 4.38 pg/mL
Urinary 11-D-HTXB2 (standardized by urine creatinine) ([6]; 240 mg group, 12–24 h after administration, 240 mg/kg): 31.37 pg/mL and 31.37 ± 3.79 pg/mL
Production of urinary 11-D-HTXB2, effect in words ([6]; single infusion of pyragrel 60, 120 or 240 mg): time- and dose-dependently inhibited
Plasma 6-keto-PG1α [7]: increase
Plasma TXB2 [7]: decreased
Platelet agglutination inducted by ADP and AA [8]: slightly inhibited

Source: PMC6821791, “Phase I Trial of Pyragrel, a Novel Thromboxane Synthetase Inhibitor, to Evaluate the Safety, Tolerability, and Pharmacokinetics in Healthy Volunteers” (Frontiers in Pharmacology, 2019)
